Experimental data published in article PMC5469750, “Antibacterial and detoxifying activity of NZ17074 analogues with multi-layers of selective antimicrobial actions against Escherichia coli and Salmonella enteritidis” (Scientific Reports, 2017).
Values after ≈ are worked out from the molar mass of the structure shown. Where a SMILES comes first, the peptide text is derived from it. Bridges are numbered along the chain shown (N, C = ends).

Key:
E. coli CVCC1515 = type: cell-based, Escherichia coli; details: CVCC1515
Experimental: (§1) The antimicrobial activity of peptides was determined by the microbroth dilution method. The bacterial strains were incubated in Mueller-Hinton (MH) medium at 37 °C overnight until the mid-log phase (OD600 nm reading of 0.5). Bacteria were diluted to 1 × 10^5 CFU/ml and added into 96-well plates, followed by the addition of serial dilutions of peptides (from 0.0625 to 128 μg/ml). The plates were incubated at 37 °C for 18–24 h. The MIC value was determined as the lowest peptide concentration at which no bacterial growth was observed. All tests were conducted in triplicate.

S. enteritidis CVCC3377 [1] = type: cell-based, Salmonella enteritidis; details: CVCC3377
Experimental: as §1

[2] = system: Bacillus subtilis ATCC6633; type: cell-based; details: ATCC6633
Experimental: as §1

[3] = system: Enterococcus faecium CMCC1.2136; type: cell-based; details: CMCC1.2136
Experimental: as §1

Escherichia coli CVCC195 = type: cell-based; details: CVCC195
Experimental: as §1

[4] = system: Listeria ivanovii ATCC19119; type: cell-based; details: ATCC19119
Experimental: as §1

[5] = system: Pseudomonas aeruginosa CICC10419; type: cell-based; details: CICC10419
Experimental: as §1

S. pullorum CVCC1789 = type: cell-based; details: CVCC1789
Experimental: as §1

S. pullorum CVCC1802 = type: cell-based; details: CVCC1802
Experimental: as §1

S. suis CVCC606 = type: cell-based
Experimental: as §1

[6] = system: Salmonella typhimurium ATCC14028; type: cell-based; details: ATCC14028
Experimental: as §1

[7] = system: Staphylococcus aureus ATCC43300; type: cell-based; details: ATCC43300
Experimental: as §1

P. aeruginosa CICC21630 = type: cell-based, Pseudomonas aeruginosa; details: CICC21630
Experimental: as §1

S. aureus ATCC25923 = type: cell-based, Staphylococcus aureus; details: ATCC25923
Experimental: as §1

[8] = system: Candida albicans CGMCC2.2411; type: cell-based; details: CGMCC2.2411
E. coli CVCC195 = type: cell-based, Escherichia coli; details: CVCC195, 3 h, 1
Experimental: (§2) Radioactive precursors were added into cells (1 μCi/ml) and shaken at 37 °C for 20 min. Ice-cold 25% trichloroacetic acid (TCA) was added and placed on ice for 30 min. The cells were centrifuged and washed twice with ice-cold 25% TCA. After drying, the samples were mixed with scintillation fluid and counted for their radioactivity using a MicroBeta 1450 scintillation counter (Perkin Elmer)[62].

S. enteritidis CVCC3377 [9] = type: cell-based, Salmonella enteritidis; details: CVCC3377, 3 h, 1
Experimental: as §2

S. choleraesuis CVCC503 = type: cell-based; details: CVCC503
Experimental: as §1

[10] = LPS binding, BODIPY-TR-cadaverine (BC) displacement; details: negative control; 50 mM Tris buffer pH 7.4
Experimental: Equal volumes of 40 μg/ml LPS and 10 μM BC in 50 mM Tris buffer (pH 7.4) were mixed, added into 96-well plates and incubated in the dark for 4 h at room temperature. […] Fluorescence was then measured using a microplate reader (excitation/emission, 580/620 nm). The occupancy rate was calculated by the following equation: BC displacement rate (%) = (1 − (F0 − F)/(F0 − Fmax)) × 100, wherein F0 is the fluorescence intensity of the solution of BC alone; Fmax is the fluorescence intensity in the presence of LPS at the saturation concentration, and F is the intensity of LPS:BC mixtures at varying displacer concentrations.

SMILES	MIC (E. coli CVCC1515) [µg/mL]	MIC (S. enteritidis CVCC3377 [1]) [µg/mL]	MIC [2] [µg/mL]	MIC [3] [µg/mL]	MIC (Escherichia coli CVCC195) [µg/mL]	MIC [4] [µg/mL]	MIC [5] [µg/mL]	MIC (S. pullorum CVCC1789) [µg/mL]	MIC (S. pullorum CVCC1802) [µg/mL]	MIC (S. suis CVCC606) [µg/mL]	MIC [6] [µg/mL]	MIC [7] [µg/mL]	MIC (P. aeruginosa CICC21630) [µg/mL]	MIC (S. aureus ATCC25923) [µg/mL]	MIC [8] [µg/mL]	inhibition of 3H-thymidine incorporation (DNA synthesis) (E. coli CVCC195) [%]	inhibition of DNA synthesis (3H-thymidine) (S. enteritidis CVCC3377 [9]) [%]	MIC (S. choleraesuis CVCC503) [µg/mL]	also measured
CC(C)[C@@H]1NC(=O)[C@H](C)NC(=O)[C@H](CC(N)=O)NC(=O)[C@H](CCCNC(=N)N)NC(=O)[C@H](Cc2ccc(O)cc2)NC(=O)[C@H](C(C)C)NC(=O)[C@@H]2CSSC[C@H](NC(=O)[C@H](C(C)C)NC(=O)[C@H](CCCNC(=N)N)NC1=O)C(=O)N[C@@H](Cc1c[nH]cn1)C(=O)N[C@@H](CCCNC(=N)N)C(=O)N[C@@H](CCCNC(=N)N)C(=O)N[C@H](C(=O)N[C@@H](CC(N)=O)C(=O)O)CSSC[C@H](NC(=O)[C@H](Cc1ccccc1)NC(=O)[C@H](C)N)C(=O)N[C@@H](Cc1c[nH]c3ccccc13)C(=O)N[C@@H](CC(N)=O)C(=O)N[C@@H](C(C)C)C(=O)N2 [N2] (H-AFCWNVCVYRNAVRVCHRRCN-OH; disulfide 3-20, 7-16)	0.5 (≈ 0.195 µM)	0.125 (≈ 0.0487 µM)	0.5 (≈ 0.195 µM)	4 (≈ 1.56 µM)	0.25 (≈ 0.0974 µM)	4 (≈ 1.56 µM)	2 (≈ 0.779 µM)	0.5 (≈ 0.195 µM)	0.25 (≈ 0.0974 µM)	16 (≈ 6.24 µM)	1 (≈ 0.39 µM)	16 (≈ 6.24 µM)	2 (≈ 0.779 µM)	0.25 (≈ 0.0974 µM)	32 (≈ 12.5 µM)	28.6	35.5	–	inhibition of 3H-uridine incorporation (RNA synthesis) (E. coli CVCC195): 18.7%; inhibition of protein synthesis (3H-leucine) (S. enteritidis CVCC3377 [9]): 17.0%
CC(C)[C@@H]1NC(=O)CNC(=O)[C@H](CC(N)=O)NC(=O)[C@H](CCCNC(=N)N)NC(=O)[C@H](Cc2ccc(O)cc2)NC(=O)[C@H](C(C)C)NC(=O)[C@@H]2CSSC[C@H](NC(=O)[C@H](C(C)C)NC(=O)[C@H](CCCNC(=N)N)NC1=O)C(=O)N[C@@H](Cc1c[nH]cn1)C(=O)N[C@@H](CCCNC(=N)N)C(=O)N[C@@H](CCCNC(=N)N)C(=O)N[C@H](C(=O)N[C@@H](CC(N)=O)C(=O)O)CSSC[C@H](NC(=O)[C@H](Cc1ccccc1)NC(=O)CN)C(=O)N[C@@H](CCCCN)C(=O)N[C@@H](C)C(=O)N[C@@H](C(C)C)C(=O)N2 [N3] (H-GFCKAVCVYRNGVRVCHRRCN-OH; disulfide 3-20, 7-16)	1 (≈ 0.41 µM)	0.5 (≈ 0.205 µM)	2 (≈ 0.821 µM)	8 (≈ 3.28 µM)	1 (≈ 0.41 µM)	8 (≈ 3.28 µM)	>16	2 (≈ 0.821 µM)	1 (≈ 0.41 µM)	16 (≈ 6.57 µM)	4 (≈ 1.64 µM)	>16	16 (≈ 6.57 µM)	0.25 (≈ 0.103 µM)	>16	–	–	–	–
CC(C)[C@@H]1NC(=O)CNC(=O)[C@H](CC(N)=O)NC(=O)[C@H](CCCNC(=N)N)NC(=O)[C@H](Cc2ccc(O)cc2)NC(=O)[C@H](C(C)C)NC(=O)[C@@H]2CSSC[C@H](NC(=O)[C@H](C(C)C)NC(=O)[C@H](CCCNC(=N)N)NC1=O)C(=O)N[C@@H](Cc1c[nH]cn1)C(=O)N[C@@H](CCCNC(=N)N)C(=O)N[C@@H](CCCNC(=N)N)C(=O)N[C@H](C(=O)N[C@@H](CC(N)=O)C(=O)O)CSSC[C@H](NC(=O)[C@H](Cc1ccccc1)NC(=O)CNC(=O)[C@@H](N)Cc1c[nH]c3ccccc13)C(=O)N[C@@H](Cc1c[nH]c3ccccc13)C(=O)N[C@@H](CC(N)=O)C(=O)N[C@@H](C(C)C)C(=O)N2 [N4] (H-WGFCWNVCVYRNGVRVCHRRCN-OH; disulfide 4-21, 8-17)	1 (≈ 0.367 µM)	0.25 (≈ 0.0918 µM)	1 (≈ 0.367 µM)	–	1 (≈ 0.367 µM)	–	–	1 (≈ 0.367 µM)	2 (≈ 0.734 µM)	–	2 (≈ 0.734 µM)	8 (≈ 2.94 µM)	4 (≈ 1.47 µM)	1 (≈ 0.367 µM)	–	–	–	–	–
CC(C)[C@@H]1NC(=O)CNC(=O)[C@H](CC(N)=O)NC(=O)[C@H](CCCNC(=N)N)NC(=O)[C@H](Cc2ccc(O)cc2)NC(=O)[C@H](C(C)C)NC(=O)[C@@H](NC(=O)[C@@H](NC(=O)[C@H](CC(N)=O)NC(=O)[C@H](Cc2c[nH]c3ccccc23)NC(=O)[C@H](C)NC(=O)[C@H](Cc2ccccc2)NC(=O)CN)C(C)C)CSSC[C@@H](C(=O)N[C@@H](Cc2c[nH]cn2)C(=O)N[C@@H](CCCNC(=N)N)C(=O)N[C@@H](CCCNC(=N)N)C(=O)N[C@@H](C)C(=O)N[C@@H](CC(N)=O)C(=O)O)NC(=O)[C@H](C(C)C)NC(=O)[C@H](CCCNC(=N)N)NC1=O [N6] (H-GFAWNVCVYRNGVRVCHRRAN-OH; disulfide 7-16)	1 (≈ 0.404 µM)	0.25 (≈ 0.101 µM)	0.5 (≈ 0.202 µM)	4 (≈ 1.62 µM)	0.5 (≈ 0.202 µM)	–	8 (≈ 3.23 µM)	0.5 (≈ 0.202 µM)	0.5 (≈ 0.202 µM)	16 (≈ 6.46 µM)	2 (≈ 0.808 µM)	16 (≈ 6.46 µM)	4 (≈ 1.62 µM)	0.25 (≈ 0.101 µM)	64 (≈ 25.8 µM)	43.8	61.8	2 (≈ 0.808 µM)	inhibition of RNA biosynthesis (3H-uridine) (S. enteritidis CVCC3377 [9]): 5.7%
CC(C)[C@@H]1NC(=O)CNC(=O)[C@H](CC(N)=O)NC(=O)[C@H](CCCNC(=N)N)NC(=O)[C@H](Cc2ccc(O)cc2)NC(=O)[C@H](C(C)C)NC(=O)[C@H](C)NC(=O)[C@H](C(C)C)NC(=O)[C@H](CC(N)=O)NC(=O)[C@H](Cc2c[nH]c3ccccc23)NC(=O)[C@@H](NC(=O)[C@H](Cc2ccccc2)NC(=O)CN)CSSC[C@@H](C(=O)N[C@@H](CC(N)=O)C(=O)O)NC(=O)[C@H](CCCNC(=N)N)NC(=O)[C@H](CCCNC(=N)N)NC(=O)[C@H](Cc2c[nH]cn2)NC(=O)[C@H](C)NC(=O)[C@H](C(C)C)NC(=O)[C@H](CCCNC(=N)N)NC1=O [N7] (H-GFCWNVAVYRNGVRVAHRRCN-OH; disulfide 3-20)	2 (≈ 0.808 µM)	0.5 (≈ 0.202 µM)	2 (≈ 0.808 µM)	2 (≈ 0.808 µM)	2 (≈ 0.808 µM)	2 (≈ 0.808 µM)	>64	4 (≈ 1.62 µM)	4 (≈ 1.62 µM)	8 (≈ 3.23 µM)	8 (≈ 3.23 µM)	>64	>64	0.5 (≈ 0.202 µM)	>16	–	–	16 (≈ 6.46 µM)	–
CC1(C)S[C@@H]2[C@H](NC(=O)[C@H](N)c3ccccc3)C(=O)N2[C@H]1C(=O)O [ampicillin]	–	–	–	–	–	–	–	–	–	–	–	–	–	–	–	–	–	–	BC displacement / binding to LPS [10]: did not displace BC
